Laboratory results published in EPA's ToxRefDB 2.

Assays:
rat [1] = details: Subchronic oral toxicity in rodents, wistar, Feed, dose end: 90 day, group: systemic
rat [2] = details: Subchronic oral toxicity in rodents, fischer, Feed, dose end: 13 week, group: systemic
rat [3] = details: Multigenerational reproductive toxicity study, sprague dawley, Oral, Feed, dose end: 2 generation
rat [4] = details: Combined chronic toxicity/carcinogenicity, fischer, Oral, Feed, dose end: 24 month, group: systemic
mouse [5] = details: Sub-acute repeat dose toxicity, cd1, Oral, Feed, dose end: 4 week, group: systemic
mouse [6] = details: Carcinogenicity; cd1; Oral; Feed; dose end: 18 month; group: systemic; systemic / pathology gross / kidney / reduced size + systemic / pathology microscopic / kidney / inflammation + systemic / pathology …
rat [7] = details: Multigenerational reproductive toxicity study, sprague dawley, Oral, Feed, dose end: 2 generation; remark: listed apart in the source
[8] = systemic / pathology microscopic / kidney / inflammation + systemic / in life observation / mortality / mortality + systemic / pathology …
[9] = group: offspring, developmental / offspring survival late / viability index / viability index
[10] = group: offspring, developmental / offspring survival late / viability index / viability index + systemic / in life observation / body weight / offspring (pup…
[11] = group: parental, systemic / organ weight / kidney / relative to body weight
[12] = group: parental, systemic / organ weight / kidney / relative to body weight + systemic / organ weight / kidney / absolute + systemic / pathology gross / …
[13] = systemic / in life observation / clinical signs / perineal soiling + systemic / organ weight / adrenal gland / relative to body weight + …
[14] = systemic / pathology microscopic / kidney / degeneration
[15] = systemic / pathology microscopic / kidney / degeneration + systemic / in life observation / body weight / body weight gain + systemic / in …
[16] = group: parental, systemic / organ weight / kidney / absolute + systemic / organ weight / kidney / relative to body weight
[17] = group: reproductive, reproductive / offspring survival early / dead fetuses / dead fetuses + reproductive / offspring survival early / litter size / litter size

Question: With `Nc1c(Cl)c(F)nc(OCC(=O)O)c1Cl` [Fluroxypyr] as the compound, how does the LEL (rat [1]; [8]) read?
Answer: 750 mg/kg/day

Question: And the LOAEL (rat [1]; [8])?
Answer: 750 mg/kg/day

Question: And the NEL (rat [1]; systemic / urinalysis / ph / ph + systemic / clinical chemistry / alanine aminotransferase (alt/sgpt) / alanine aminotransferase (alt/sgpt…)?
Answer: 80 mg/kg/day

Question: What about the LEL (rat [2]; systemic / hematology / hemoglobin (hgb) / hemoglobin (hgb) + systemic / urinalysis / specific gravity/osmolality / specific gravity/…) of the same compound?
Answer: 700 mg/kg/day

Question: And the NEL (rat [2]; systemic / in life observation / body weight / body weight gain + systemic / organ weight / testes / absolute + systemic / hematology / …)?
Answer: 320 mg/kg/day

Question: And the NOAEL (rat [2]; systemic / organ weight / brain / absolute + systemic / hematology / erythrocyte (rbc) count differential / erythrocyte (rbc) + systemic / …)?
Answer: 700 mg/kg/day

Question: What about the LOAEL (rat [2]; systemic / organ weight / brain / absolute + systemic / in life observation / body weight / body weight gain + systemic / organ weight / …) of the same compound?
Answer: 1000 mg/kg/day

Question: What about the LEL (rat [3]; [9]) of the same compound?
Answer: 500 mg/kg/day

Question: And the LOAEL (rat [3]; [9])?
Answer: 500 mg/kg/day

Question: What about the NEL (rat [3]; [10]) of the same compound?
Answer: 100 mg/kg/day

Question: And the NOAEL (rat [3]; [10])?
Answer: 100 mg/kg/day

Question: What about the LEL (rat [3]; [11]) of the same compound?
Answer: 100 mg/kg/day

Question: What about the NEL (rat [3]; [11]) of the same compound?
Answer: < 100 mg/kg/day

Question: What about the LOAEL (rat [3]; [12]) of the same compound?
Answer: 500 mg/kg/day

Question: And the NOAEL (rat [3]; [12])?
Answer: 100 mg/kg/day

Question: What about the LEL (rat [4]; [13]) of the same compound?
Answer: 100 mg/kg/day

Question: And the NEL (rat [4]; [13])?
Answer: < 100 mg/kg/day

Question: And the NOAEL (rat [4]; [13])?
Answer: 100 mg/kg/day

Question: And the LOAEL (rat [4]; systemic / organ weight / kidney / relative to body weight + systemic / pathology microscopic / kidney / nephropathy + systemic / organ …)?
Answer: 500 mg/kg/day

Question: And the LEL (mouse [5]; [14])?
Answer: 132 mg/kg/day

Question: And the LOAEL (mouse [5]; [14])?
Answer: 132 mg/kg/day

Question: What about the NEL (mouse [5]; [15]) of the same compound?
Answer: 14 mg/kg/day

Question: And the NOAEL (mouse [5]; [15])?
Answer: 14 mg/kg/day

Question: What about the LEL (mouse [6]) of the same compound?
Answer: 1000 mg/kg/day

Question: And the LOAEL (mouse [6])?
Answer: 1000 mg/kg/day

Question: What about the NEL (mouse [6]) of the same compound?
Answer: 300 mg/kg/day

Question: And the NOAEL (mouse [6])?
Answer: 300 mg/kg/day

Question: And the LEL (rat [7]; group: offspring, developmental / developmental malformation / general / runts)?
Answer: 500 mg/kg/day

Question: What about the NEL (rat [7]; group: offspring, developmental / developmental malformation / general / runts + developmental / developmental malformation / eye / anophthalmia + …) of the same compound?
Answer: 100 mg/kg/day

Question: What about the NOAEL (rat [7]; group: offspring, developmental / developmental malformation / general / runts + systemic / in life observation / body weight / offspring (pup) weight gain + …) of the same compound?
Answer: 500 mg/kg/day

Question: And the LOAEL (rat [7]; group: offspring, systemic / in life observation / body weight / offspring (pup) weight gain + systemic / in life observation / body weight / offspring (pup) …)?
Answer: 750 mg/kg/day

Question: And the NOAEL (rat [7]; group: parental, systemic / organ weight / kidney / absolute + systemic / in life observation / body weight / body weight + systemic / in life observation / …)?
Answer: 100 mg/kg/day

Question: What about the LEL (rat [7]; [16]) of the same compound?
Answer: 100 mg/kg/day

Question: What about the NEL (rat [7]; [16]) of the same compound?
Answer: < 100 mg/kg/day

Question: And the LOAEL (rat [7]; group: parental, systemic / organ weight / kidney / absolute + systemic / organ weight / kidney / relative to body weight + systemic / pathology microscopic…)?
Answer: 500 mg/kg/day

Question: And the LEL (rat [7]; [17])?
Answer: 750 mg/kg/day

Question: And the LOAEL (rat [7]; [17])?
Answer: 750 mg/kg/day

Question: What about the NEL (rat [7]; [17]) of the same compound?
Answer: 500 mg/kg/day

Question: What about the NOAEL (rat [7]; [17]) of the same compound?
Answer: 500 mg/kg/day
